Reference: patent US20050209248A1, “Plymorphic forms of phenyl oxazolidinone derivatives” (priority 2002, published 2005)
Values after ≈ are worked out from the molar mass of the structure shown. Like-named read-outs stand apart in the source and are kept apart here.

How the values were obtained:
[1] = tested on: Clostridium perfringens; assay type: cell-based
[2] = tested on: Porphyromonas asaccharolytica; test: Agar dilution MIC; assay type: cell-based; details: Porphyromonas asaccharolytica isolate
[3] = tested on: MRSE 879 adherent bacteria; test: Sintered glass adherent bacteria model; assay type: cell-based; details: MRSE 879, sintered glass adherent
From the text: (§1) Inhibition of slime production • 2. Activity against glass-adherent bacteria.
(§2) The change in MIC in broth and on sintered glass adherent bacteria is presented in Graph E. [drawing]

[4] = tested on: Prevotella bivia; test: Agar dilution MIC; assay type: cell-based; details: Prevotella bivia isolate
[5] = tested on: MRSE 879; test: Broth MIC; assay type: cell-based; details: for MIC: Staphylococcus epidermidis, read-out: broth MIC
From the text: as §2

[6] = tested on: Porphyromonas gingivalis; test: Agar dilution MIC; assay type: cell-based; details: Porphyromonas gingivalis isolate
[7] = tested on: Fusobacterium necrogenes; test: Agar dilution MIC; assay type: cell-based; details: Fusobacterium necrogenes isolate
[8] = tested on: anaerobic bacteria; test: NCCLS agar dilution MIC, anaerobic bacteria (summary); assay type: cell-based; details: anaerobes, Wilkins Chalgren Agar, 48 hour anaerobic incubation; for MIC Range: in µg/mL
[9] = tested on: Mycobacterium avium intracellulare; test: Agar dilution method (Middlebrook 7H10); assay type: cell-based; details: 504 h, 21 days at 37° C.; for MIC: read-out: G.M. (MIC)
[10] = tested on: MRSA 1029/99 and MRSE 879/247; test: Inhibition of biofilm (slime) production, safranin staining; assay type: cell-based; details: trypticase soy broth with 2% glucose, overnight 37° C., Graphs A to D
Procedure: as §1
To study the effect of polymorphic ‘Form A’ on the inhibition of biofilm production, the following study was carried out as set forth in Blake et al. J. Clinical Microbiol. 2001; 39:544-550; and Polonio et al. Chemother. 2001; 45:3262-3266. […] Bacterial suspensions (in triplicate) were exposed a doubling dilution of antibiotics and incubated overnight at 37° C. with constant shaking (100 rpm). The next day, after aspirating the medium, the biofilm was stained with safranin (0.1%) for 1 hour at room temperature, washed with distilled water, tapped dry and stain-extracted into 200 μl of 0.2M NaoH and the OD measured at 544 nm.

[11] = tested on: Mycobacterium tuberculosis; test: Agar dilution method for M. tuberculosis (Middlebrook 7H10); assay type: cell-based; details: 504 h; for MIC90 / MIC: 21 days at 37° C.; for MIC: read-out: G.M. (MIC)
[12] = in vivo; cited from earlier work

Compound | MIC [2] [µg/mL] | MIC [4] [µg/mL] | MIC [6] [µg/mL] | MIC [7] [µg/mL] | Geometric Mean (MIC) [8] [µg/mL] | MIC50 [8] [µg/mL] | MIC90 [8] [µg/mL] | MIC Range [8] | MIC50 [9] [µg/mL] | MIC90 [9] [µg/mL] | MIC [9] [µg/mL] | MIC50 [11] [µg/mL] | MIC90 [11] [µg/mL] | MIC [11] [µg/mL] | other results
CN[C@H](CC(C)C)C(=O)N[C@H]1C(=O)N[C@@H](CC(N)=O)C(=O)N[C@H]2C(=O)N[C@H]3C(=O)N[C@H](C(=O)N[C@H](C(=O)O)c4cc(O)cc(O)c4-c4cc3ccc4O)[C@H](O)c3ccc(c(Cl)c3)Oc3cc2cc(c3O[C@@H]2O[C@H](CO)[C@@H](O)[C@H](O)[C@H]2O[C@H]2C[C@](C)(N)[C@H](O)[C@H](C)O2)Oc2ccc(cc2Cl)[C@H]1O [Vancomycin] | 2 (≈ 1.38 µM) | > 16 | 8 (≈ 5.52 µM) | > 16 | 9.31 | 32 (≈ 22.1 µM) | 32 (≈ 22.1 µM) | 0.5-32 | – | – | – | – | – | – | MIC [1]: 0.5 µg/mL (≈ 0.345 µM); concentration which would kill adherent bacteria [3]: 8 µg/mL; MIC ([5]; MRSE): 1 µg/mL (≈ 0.69 µM)
COc1c(N2C[C@@H]3CCCN[C@@H]3C2)c(F)cc2c(=O)c(C(=O)O)cn(C3CC3)c12 [Moxifloxacin] | 0.5 (≈ 1.25 µM) | – | 0.03 (≈ 0.0747 µM) | 1 (≈ 2.49 µM) | – | – | – | – | – | – | – | – | – | – | –
Cc1ncc([N+](=O)[O-])n1CCO [Metronidazole] | – | 1 (≈ 5.84 µM) | – | 0.25 (≈ 1.46 µM) | 0.48 | 0.5 (≈ 2.92 µM) | 2 (≈ 11.7 µM) | 0.062-32 | – | – | – | – | – | – | –
CC(=O)NC[C@H]1CN(c2ccc(N3CCN(Cc4ccc([N+](=O)[O-])o4)CC3)c(F)c2)C(=O)O1.Cl [Polymorphic ‘Form A’] | ≤ 0.008 | 0.125 | ≤ 0.008 | ≤ 0.008 | 0.037 | 0.032 | 0.25 | 0.004-1 | 8 | 32 | 8.52 | 4 | 64 | 5.44 | concentration which would kill adherent bacteria [3]: 2 µg/mL; Inhibition of Biofilm formation [10]: occurs at a lower concentration; MIC ([5]; MRSE 879, broth): 0.5 µg/mL
CCC[C@@H]1C[C@@H](C(=O)N[C@@H]([C@H]2O[C@H](SC)[C@H](O)[C@@H](O)[C@H]2O)[C@H](C)Cl)N(C)C1 [Clindamycin] | ≤ 0.016 | > 32 | ≤ 0.016 | 0.03 (≈ 0.0706 µM) | 0.208 | 0.125 (≈ 0.294 µM) | 8 (≈ 18.8 µM) | 0.008-64 | – | – | – | – | – | – | –
CO[C@H]1/C=C/O[C@@]2(C)Oc3c(C)c(O)c4c(O)c(c(/C=N/N5CCN(C)CC5)c(O)c4c3C2=O)NC(=O)/C(C)=C\C=C\[C@H](C)[C@H](O)[C@@H](C)[C@@H](O)[C@@H](C)[C@H](OC(C)=O)[C@@H]1C [Rifampicin] | – | – | – | – | – | – | – | – | 1 (≈ 1.22 µM) | 32 (≈ 38.9 µM) | 2 (≈ 2.43 µM) | 64 (≈ 77.8 µM) | 64 (≈ 77.8 µM) | 6.35 (≈ 7.72 µM) | –
CC[C@H]1OC(=O)[C@H](C)[C@@H](O[C@H]2C[C@@](C)(OC)[C@@H](O)[C@H](C)O2)[C@H](C)[C@@H](O[C@@H]2O[C@H](C)C[C@H](N(C)C)[C@H]2O)[C@](C)(OC)C[C@@H](C)C(=O)[C@H](C)[C@@H](O)[C@]1(C)O [Clarithromycin] | – | – | – | – | – | – | – | – | 1 (≈ 1.34 µM) | 4 (≈ 5.35 µM) | 1.55 (≈ 2.08 µM) | 16 (≈ 21.4 µM) | 32 (≈ 42.8 µM) | 12.7 (≈ 17 µM) | –
Synercid | ≤ 0.125 | 2 | 0.25 | 0.25 | 1.61 | 1 | 16 | 0.062-16 | – | – | – | – | – | – | concentration which would kill adherent bacteria [3]: 2 µg/mL; broth MIC ([5]; MRSE 879, broth): 0.5 µg/mL
C[C@@H](O)[C@H]1C(=O)N2C(C(=O)O)=C(SCCN=CN)C[C@H]12 [Imipenem] | 0.03 (≈ 0.1 µM) | 0.03 (≈ 0.1 µM) | ≤ 0.016 | 0.25 (≈ 0.835 µM) | 0.084 | 0.064 (≈ 0.214 µM) | 1 (≈ 3.34 µM) | 0.008-4 | – | – | – | – | – | – | –
CC1(C)S[C@@H]2[C@H](NC(=O)[C@H](N)c3ccc(O)cc3)C(=O)N2[C@H]1C(=O)O [Amox] | – | – | – | 0.5 (≈ 1.37 µM) | 1.37 | 1 (≈ 2.74 µM) | 256 (≈ 701 µM) | 0.062-256 | – | – | – | – | – | – | –
Amox + clav | ≤ 0.125 | ≤ 0.125 | ≤ 0.125 | 0.5 | 0.423 | 0.25 | 8 | 0.062-32 | – | – | – | – | – | – | –
CC(=O)NC[C@H]1CN(c2ccc(N3CCOCC3)c(F)c2)C(=O)O1 [Linezolid] | 1 (≈ 2.96 µM) | 1 (≈ 2.96 µM) | 1 (≈ 2.96 µM) | 0.5 (≈ 1.48 µM) | 1.13 | 1 (≈ 2.96 µM) | 4 (≈ 11.9 µM) | 0.25-4 | 16 (≈ 47.4 µM) | 64 (≈ 190 µM) | 20.6 (≈ 61 µM) | 8 (≈ 23.7 µM) | 64 (≈ 190 µM) | 8 (≈ 23.7 µM) | concentration which would kill adherent bacteria [3]: 32 µg/mL; MIC ([5]; MRSE 879, broth): 2 µg/mL (≈ 5.93 µM); Cmax [12]: 12000 to 16000 ng/mL
NNC(=O)c1ccncc1 [Isoniazid] | – | – | – | – | – | – | – | – | 32 (≈ 233 µM) | 64 (≈ 467 µM) | 18.1 (≈ 132 µM) | 8 (≈ 58.3 µM) | 64 (≈ 467 µM) | 3.17 (≈ 23.1 µM) | –
C[C@@H]1CN(c2c(F)c(N)c3c(=O)c(C(=O)O)cn(C4CC4)c3c2F)C[C@H](C)N1 [Sparfloxacin] | – | – | – | – | – | – | – | – | 4 (≈ 10.2 µM) | 8 (≈ 20.4 µM) | 3.53 (≈ 8.99 µM) | 1 (≈ 2.55 µM) | 2 (≈ 5.1 µM) | 0.53 (≈ 1.35 µM) | –
COc1c(N2CCNC(C)C2)c(F)cc2c(=O)c(C(=O)O)cn(C3CC3)c12 (stereo not shown) [Gatifloxacin] | 0.25 (≈ 0.666 µM) | 2 (≈ 5.33 µM) | 0.06 (≈ 0.16 µM) | 0.5 (≈ 1.33 µM) | 0.659 | 0.5 (≈ 1.33 µM) | 2 (≈ 5.33 µM) | 0.06-32 | – | – | – | – | – | – | –
Teicoplanin | 0.125 | 1 | ≤ 0.06 | > 16 | 2.04 | 2 | 32 | 0.03-32 | – | – | – | – | – | – | –
